Where two headings read alike, the source gives them in different places.
Assays:
Type in all cases: in vivo, human
[1] = Clearance pathways (available data)
[2] = Safety (TEAEs), JACKPOT2 MAD cohorts; details: n = 6
Text: Safety assessments included monitoring of adverse events/serious adverse events, clinical safety laboratory tests (clinical chemistry, hematology, coagulation, and urinalysis tests), 12-lead ECG, vital signs (blood pressure, pulse rate, and respiratory rate), and pulmonary function. All adverse events were coded using the Medical Dictionary for Regulatory Activities (MedDRA), version 22.0. The CTCAE 5.0 was used to define the intensity of AEs.

[3] = Pooled JACKPOT2/JACKPOT3 SAD analysis of the effect of race on PK; details: for Dose normalized AUC0-inf, GLS Mean / Dose normalized AUC0-t, GLS Mean / Dose normalized Cmax, GLS Mean: ANCOVA; for Vd/F / half-life: human, plasma, oral
Protocol: Assessment of inter-ethnic difference of golidocitinib PK: The primary analyses of AUC0–t, AUC0–inf, and Cmax (log-transformed dose-normalized PK parameters) were performed using an analysis of covariance (ANCOVA) model, with the ethnic group as a fixed effect and dose (log scale) as a covariate. The analysis of variance (ANOVA) model was built for the secondary PK endpoints (log-transformed CL/F, Vz/F, and t1/2) with the ethnic group as a fixed effect. The Black/Caucasian and Asian/Caucasian ratios of the geometric mean were calculated by taking the antilogarithm of the difference between group means and corresponding 90% confidence intervals (CIs) in the log scale. Other analyses are descriptive, and no formal statistical comparison is performed for pooled JACKPOT2 and JACKPOT3 data. As the study design of SAD cohorts in JACKPOT2 and JACKPOT3 studies was similar, pooled analysis was performed. The race factor is the focus potentially used for the exposure comparison. A total of 62 participants were included in the analysis (11 Caucasians, 19 Blacks and 32 Asians).

COc1nn(C)cc1Nc1nccc(-c2c[nH]c3c(NC(=O)[C@@H](C)N4CCN(C)CC4)cccc23)n1 [golidocitinib, (2R)-N-[3-[2-[(3-Methoxy-1-methyl-pyrazol-4-yl)amino]pyrimidin-4-yl]-1H-indol-7-yl]-2-(4-methylpiperazin-1-yl)propenamide]
hepatic clearance, share of clearance [1]: 70-80%
renal excretion, share of clearance [1]: 20-30%
Abdominal pain upper ([2]; 25 mg once daily 14 days): 0 n (%)
Blood and Lymphatic Disorders ([2]; 25 mg once daily 14 days): 1 (16.7%) n (%)
Constipation ([2]; 25 mg once daily 14 days): 1 (16.7%) n (%)
Dry throat ([2]; 25 mg once daily 14 days): 0 n (%)
Gastrointestinal disorders ([2]; 25 mg once daily 14 days): 1 (16.7%) n (%)
Headache ([2]; 25 mg once daily 14 days): 0 n (%)
Injury, poisoning and procedural complications ([2]; 25 mg once daily 14 days): 0 n (%)
Leukopenia ([2]; 25 mg once daily 14 days): 0 n (%)
Nausea ([2]; 25 mg once daily 14 days): 0 n (%)
Nervous System Disorders ([2]; 25 mg once daily 14 days): 0 n (%)
Neutropenia ([2]; 25 mg once daily 14 days): 1 (16.7%) n (%)
Respiratory, Thoracic and Mediastinal Disorders ([2]; 25 mg once daily 14 days): 0 n (%)
Reticulocytopenia ([2]; 25 mg once daily 14 days): 0 n (%)
Skin Laceration ([2]; 25 mg once daily 14 days): 0 n (%)
Subjects with at least one TEAE ([2]; 25 mg once daily 14 days): 2 (33.3%) n (%)
Abdominal pain upper ([2]; 50 mg once daily 14 days): 1 (16.7%) n (%)
Blood and Lymphatic Disorders ([2]; 50 mg once daily 14 days): 0 n (%)
Constipation ([2]; 50 mg once daily 14 days): 1 (16.7%) n (%)
Dry throat ([2]; 50 mg once daily 14 days): 0 n (%)
Gastrointestinal disorders ([2]; 50 mg once daily 14 days): 1 (16.7%) n (%)
Headache ([2]; 50 mg once daily 14 days): 1 (16.7%) n (%)
Injury, poisoning and procedural complications ([2]; 50 mg once daily 14 days): 0 n (%)
Leukopenia ([2]; 50 mg once daily 14 days): 0 n (%)
Nausea ([2]; 50 mg once daily 14 days): 1 (16.7%) n (%)
Nervous System Disorders ([2]; 50 mg once daily 14 days): 1 (16.7%) n (%)
Neutropenia ([2]; 50 mg once daily 14 days): 0 n (%)
Respiratory, Thoracic and Mediastinal Disorders ([2]; 50 mg once daily 14 days): 0 n (%)
Reticulocytopenia ([2]; 50 mg once daily 14 days): 0 n (%)
Skin Laceration ([2]; 50 mg once daily 14 days): 0 n (%)
Subjects with at least one TEAE ([2]; 50 mg once daily 14 days): 1 (16.7%) n (%)
Abdominal pain upper ([2]; 100 mg once daily 14 days): 0 n (%)
Blood and Lymphatic Disorders ([2]; 100 mg once daily 14 days): 3 (50.0%) n (%)
Constipation ([2]; 100 mg once daily 14 days): 0 n (%)
Dry throat ([2]; 100 mg once daily 14 days): 0 n (%)
Gastrointestinal disorders ([2]; 100 mg once daily 14 days): 0 n (%)
Headache ([2]; 100 mg once daily 14 days): 1 (16.7%) n (%)
Injury, poisoning and procedural complications ([2]; 100 mg once daily 14 days): 0 n (%)
Leukopenia ([2]; 100 mg once daily 14 days): 2 (33.3%) n (%)
Nausea ([2]; 100 mg once daily 14 days): 0 n (%)
Nervous System Disorders ([2]; 100 mg once daily 14 days): 1 (16.7%) n (%)
Neutropenia ([2]; 100 mg once daily 14 days): 3 (50.0%) n (%)
Respiratory, Thoracic and Mediastinal Disorders ([2]; 100 mg once daily 14 days): 0 n (%)
Reticulocytopenia ([2]; 100 mg once daily 14 days): 1 (16.7%) n (%)
Skin Laceration ([2]; 100 mg once daily 14 days): 0 n (%)
Subjects with at least one TEAE ([2]; 100 mg once daily 14 days): 3 (50.0%) n (%)
CL/F, Geometric Mean (CV%) ([3]; Asian, n 24, single dose): 20.07 (21.59) L/hr
Dose normalized AUC0-inf, Geometric Mean (CV%) ([3]; Asian, n 24, single dose): 49.82 (21.63) hr*ng/mL/mg
Dose normalized AUC0-t, Geometric Mean (CV%) ([3]; Asian, n 24, single dose): 48.15 (23.34) hr*ng/mL/mg
Dose normalized Cmax, Geometric Mean (CV%) ([3]; Asian, n 24, single dose): 1.70 (24.14) ng/mL/mg
Dose normalized AUC0-inf, GLS Mean ([3]; Asian, single dose): 49.76 ng·h/mL/mg
Dose normalized AUC0-t, GLS Mean ([3]; Asian, single dose): 47.50 ng·h/mL/mg
Dose normalized Cmax, GLS Mean ([3]; Asian, single dose): 1.66 ng/mL/mg
CL/F, GLS Mean ([3]; Asian, single dose, ANOVA): 20.07 L/h
CL/F, Ratio of GLS means ([3]; Asian/Caucasian): 0.88
Dose normalized AUC0-inf, Ratio of GLS means ([3]; Asian/Caucasian): 1.2
Dose normalized AUC0-t, Ratio of GLS means ([3]; Asian/Caucasian): 1.1
Dose normalized Cmax, Ratio of GLS means ([3]; Asian/Caucasian): 1.4
Vz/F, Ratio of GLS means ([3]; Asian/Caucasian): 0.76
t1/2, Ratio of GLS means ([3]; Asian/Caucasian): 0.87
Dose normalized AUC0-inf, Geometric Mean (CV%) ([3]; Black, n 10 (5 mg group not included), single dose): 51.54 (22.55) hr*ng/mL/mg
CL/F, Geometric Mean (CV%) ([3]; Black, n 10, single dose): 19.40 (22.55) L/hr
Dose normalized AUC0-t, Geometric Mean (CV%) ([3]; Black, n 13, single dose): 46.51 (23.98) hr*ng/mL/mg
Dose normalized Cmax, Geometric Mean (CV%) ([3]; Black, n 13, single dose): 1.12 (26.07) ng/mL/mg
Dose normalized AUC0-inf, GLS Mean ([3]; Black, single dose): 52.05 ng·h/mL/mg
Dose normalized AUC0-t, GLS Mean ([3]; Black, single dose): 47.72 ng·h/mL/mg
Dose normalized Cmax, GLS Mean ([3]; Black, single dose): 1.19 ng/mL/mg
CL/F, GLS Mean ([3]; Black, single dose, ANOVA): 19.40 L/h
CL/F, Ratio of GLS means ([3]; Black/Caucasian): 0.85
Dose normalized AUC0-inf, Ratio of GLS means ([3]; Black/Caucasian): 1.2
Dose normalized AUC0-t, Ratio of GLS means ([3]; Black/Caucasian): 1.1
Dose normalized Cmax, Ratio of GLS means ([3]; Black/Caucasian): 1.0
Vz/F, Ratio of GLS means ([3]; Black/Caucasian): 1.1
t1/2, Ratio of GLS means ([3]; Black/Caucasian): 1.3
Dose normalized AUC0-inf, Geometric Mean (CV%) ([3]; Caucasian, n 6 (5 mg group not included), single dose): 43.62 (23.48) hr*ng/mL/mg
CL/F, Geometric Mean (CV%) ([3]; Caucasian, n 6, single dose): 22.92 (23.48) L/hr
Dose normalized AUC0-t, Geometric Mean (CV%) ([3]; Caucasian, n 7, single dose): 42.59 (28.57) hr*ng/mL/mg
Dose normalized Cmax, Geometric Mean (CV%) ([3]; Caucasian, n 7, single dose): 1.17 (30.17) ng/mL/mg
Dose normalized AUC0-inf, GLS Mean ([3]; Caucasian, single dose): 43.13 ng·h/mL/mg
Dose normalized AUC0-t, GLS Mean ([3]; Caucasian, single dose): 42.52 ng·h/mL/mg
Dose normalized Cmax, GLS Mean ([3]; Caucasian, single dose): 1.16 ng/mL/mg
CL/F, GLS Mean ([3]; Caucasian, single dose, ANOVA): 22.92 L/h
Vd/F ([3]; Asian, n 24, single dose, read-out: Vz/F, Geometric Mean (CV%)): 1020 L
half-life ([3]; Asian, n 24, single dose, read-out: t1/2, Geometric Mean (CV%) (converted)): 35.4 h
Vd/F ([3]; Asian, single dose, ANOVA, read-out: Vz/F, GLS Mean): 1020 L
half-life ([3]; Asian, single dose, ANOVA, read-out: t1/2, GLS Mean (converted)): 35.4 h
Vd/F ([3]; Black, n 10, single dose, read-out: Vz/F, Geometric Mean (CV%)): 1420 L
half-life ([3]; Black, n 10, single dose, read-out: t1/2, Geometric Mean (CV%) (converted)): 50.9 h
Vd/F ([3]; Black, single dose, ANOVA, read-out: Vz/F, GLS Mean): 1420 L
half-life ([3]; Black, single dose, ANOVA, read-out: t1/2, GLS Mean (converted)): 50.9 h
Vd/F ([3]; Caucasian, n 6, single dose, read-out: Vz/F, Geometric Mean (CV%)): 1350 L
half-life ([3]; Caucasian, n 6, single dose, read-out: t1/2, Geometric Mean (CV%) (converted)): 40.8 h
Vd/F ([3]; Caucasian, single dose, ANOVA, read-out: Vz/F, GLS Mean): 1350 L
half-life ([3]; Caucasian, single dose, ANOVA, read-out: t1/2, GLS Mean (converted)): 40.8 h

— PMC10108266, “Pharmacokinetic characteristics of golidocitinib, a highly selective JAK1 inhibitor, in healthy adult participants” (Frontiers in Immunology, 2023)
